Experiments:
Type in all cases: cell-based
OCT2 (mOCT2) [1] = molecular target: T1, OCT2 (mOCT2) (Mus musculus, UniProt O70577); assay: fluorescent substrate uptake in cells overexpressing mOCT2; uptake impaired in OCT1/[…](−/−) satellite glial cells
T1 construct: gene Slc22a2
T1 sequence (O70577 1-553): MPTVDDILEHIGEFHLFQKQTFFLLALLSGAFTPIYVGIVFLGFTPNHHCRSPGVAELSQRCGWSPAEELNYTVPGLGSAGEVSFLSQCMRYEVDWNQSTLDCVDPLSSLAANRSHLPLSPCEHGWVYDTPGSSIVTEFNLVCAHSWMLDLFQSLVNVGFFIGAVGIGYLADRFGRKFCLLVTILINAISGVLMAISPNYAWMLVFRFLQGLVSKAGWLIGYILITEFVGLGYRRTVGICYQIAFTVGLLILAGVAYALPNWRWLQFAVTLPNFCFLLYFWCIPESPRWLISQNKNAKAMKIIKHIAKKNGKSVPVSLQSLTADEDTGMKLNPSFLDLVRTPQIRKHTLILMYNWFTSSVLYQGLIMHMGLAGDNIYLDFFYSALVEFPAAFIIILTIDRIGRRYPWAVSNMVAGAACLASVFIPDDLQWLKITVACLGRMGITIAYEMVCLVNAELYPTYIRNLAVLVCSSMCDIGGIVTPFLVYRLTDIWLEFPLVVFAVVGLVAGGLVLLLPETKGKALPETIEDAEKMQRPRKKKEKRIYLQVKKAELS

OCT2 (hOCT2) [2] = molecular target: T2, OCT2 (hOCT2) (Homo sapiens, UniProt O15244); assay: fluorescent substrate uptake in HEK293 and Hela cells overexpressing hOCT2
T2 construct: gene SLC22A2
T2 sequence (O15244 1-555): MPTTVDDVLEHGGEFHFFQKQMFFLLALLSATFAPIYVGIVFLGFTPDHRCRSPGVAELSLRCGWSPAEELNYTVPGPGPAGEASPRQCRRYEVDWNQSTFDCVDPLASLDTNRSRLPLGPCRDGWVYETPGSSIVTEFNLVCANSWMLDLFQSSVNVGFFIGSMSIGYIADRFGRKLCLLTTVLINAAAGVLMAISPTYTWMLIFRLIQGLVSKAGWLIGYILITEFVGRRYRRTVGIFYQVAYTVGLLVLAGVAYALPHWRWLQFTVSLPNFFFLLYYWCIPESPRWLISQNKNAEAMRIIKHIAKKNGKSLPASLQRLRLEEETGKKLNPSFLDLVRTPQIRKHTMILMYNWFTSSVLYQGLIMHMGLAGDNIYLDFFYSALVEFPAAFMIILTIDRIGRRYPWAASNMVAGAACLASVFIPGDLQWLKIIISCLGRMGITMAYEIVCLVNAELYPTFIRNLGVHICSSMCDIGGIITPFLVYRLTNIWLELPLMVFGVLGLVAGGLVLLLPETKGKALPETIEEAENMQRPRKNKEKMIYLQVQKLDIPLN

OCT2 (rOCT2) = molecular target: T3, OCT2 (rOCT2) (Rattus norvegicus, UniProt Q9R0W2); assay: inhibition of TEA uptake in HEK293 cells overexpressing rOCT2
T3 construct: gene Slc22a2
T3 sequence (Q9R0W2 1-555): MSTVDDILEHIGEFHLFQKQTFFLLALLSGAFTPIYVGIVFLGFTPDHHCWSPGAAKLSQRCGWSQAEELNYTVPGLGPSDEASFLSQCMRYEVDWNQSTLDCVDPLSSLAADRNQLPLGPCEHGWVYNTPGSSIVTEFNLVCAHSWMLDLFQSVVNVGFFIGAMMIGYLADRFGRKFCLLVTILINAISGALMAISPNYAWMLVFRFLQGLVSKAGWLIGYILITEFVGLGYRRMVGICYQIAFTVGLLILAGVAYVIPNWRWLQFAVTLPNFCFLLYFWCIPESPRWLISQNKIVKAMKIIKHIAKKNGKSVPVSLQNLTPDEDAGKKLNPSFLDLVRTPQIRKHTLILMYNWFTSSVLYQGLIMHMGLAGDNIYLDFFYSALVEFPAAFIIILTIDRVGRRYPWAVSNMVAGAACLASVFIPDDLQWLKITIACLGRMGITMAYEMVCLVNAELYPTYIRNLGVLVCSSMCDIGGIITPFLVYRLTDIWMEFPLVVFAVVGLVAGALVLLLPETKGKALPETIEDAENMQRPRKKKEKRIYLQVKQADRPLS

OCT2 (hOCT2) [3] = molecular target: T2, OCT2 (hOCT2); assay: inhibition of ASP uptake in Hela cells overexpressing hOCT2 ([…] in HEK293 cells)
OCT2 (mOCT2) [4] = molecular target: T1, OCT2 (mOCT2); assay: inhibition of TEA, oxaliplatin and ASP uptake in HEK293 cells overexpressing mOCT2; reversible on washout

| SMILES | fluorescent substrate uptake in cells overexpressing mOCT2; uptake impaired in O (OCT2 (mOCT2) [1]) | fluorescent substrate uptake in HEK293 and Hela cells overexpressing hOCT2 (OCT2 (hOCT2) [2]) | inhibition of TEA uptake in HEK293 cells overexpressing rOCT2 (OCT2 (rOCT2)) | IC50 (OCT2 (hOCT2) [3]) | inhibition of TEA, oxaliplatin and ASP uptake in HEK293 cells overexpressing mOC (OCT2 (mOCT2) [4]) |
| --- | --- | --- | --- | --- | --- |
| CN(C)c1ccc(C=Cc2cc[n+](C)cc2)cc1 [4-(4-(dimethylamino)styryl)-N-methylpyridinium iodide] | ASP was taken up in OCT2-proficient cells and uptake was significantly impaired under OCT2-deficient conditions | Concentration-dependent inhibition of OCT2-dependent ASP transport by duloxetine in HEK293 and Hela cells overexpressing hOCT2 |  |  |  |
| CNCC[C@H](Oc1cccc2ccccc12)c1cccs1 [duloxetine] |  |  | These studies confirmed that duloxetine inhibits the transport of TEA by mouse, rat, and human OCT2. | 3.98 µM | These studies confirmed that duloxetine inhibits the transport of TEA by mouse, rat, and human OCT2. |

Source: paper PMC9730833, “Targeting OCT2 with Duloxetine to Prevent Oxaliplatin-induced Peripheral Neurotoxicity” (Cancer Research Communications, 2022)
